Values after ≈ are worked out from the molar mass of the structure shown. Where two headings read alike, the source gives them in different places. Ends that are not written are not given here.
Legend:
Escherichia coli UB1005 = test system: Escherichia coli UB1005
Experimental: (§1) The antimicrobial activity of each peptide was determined against the following bacteria strains: Escherichia coli ATCC 25922, Escherichia coli UB1005, Salmonella enterica serovar typhimurium C77-31, Staphylococcus aureus ATCC 29213, Staphylococcus aureus ATCC 25923 and Staphylococcus epidermidis ATCC 12228. The minimal inhibitory concentrations (MICs) of the peptides were measured according to a modified version of the National Committee for Clinical Laboratory Standards (NCCLS) broth microdilution method as described previously. Briefly, mid-logarithmic phase bacteria were cultured in Mueller-Hinton (MH) broth and then diluted to 1×10^5 CFU/ml. Equal volumes (50 µl) of microorganism solution and 2-fold serially diluted different concentrations (0.25–128 µM) peptides in 0.01% (v/v) acetic acid and 0.2% (w/v) bovine serum albumin (BSA, Sigma) were added to each well of the sterile 96-well plate. After incubation for 24 h at 37°C, MICs were determined as the lowest concentration of peptides that prevented visible turbidity by visual inspection. The tests were performed in triplicate. Cultures without peptides and uninoculated MH broth were employed as positive and negative controls, respectively. In addition, the salt stability of the peptides was tested in the MIC assay mentioned above.

[1] = test system: Salmonella enterica serovar typhimurium C77-31
Experimental: as §1

[2] = test system: Staphylococcus epidermidis ATCC 12228
Experimental: as §1

[3] = test system: gram-negative and gram-positive bacteria (six strains tested)
Experimental: as §1

human erythrocytes = test: Hemolytic activity; format: cell-based; conditions: for Hemolytic activity (in words): 1 h at 37°C in PBS, absorbance at 570 nm, up to 128 µM, three independent experiments; for Concentration causing 50% hemolysis: highest concentration 128 µM
Experimental: The hemolytic activity of the peptides was measured as the amount of hemoglobin released by the lysis of human erythrocytes. Briefly, 1 ml of fresh human blood cells (hRBCs) obtained from a healthy donor (Na Dong, Harbin, China) in a polycarbonate tube containing heparin was centrifuged at 1,000×g for 5 min at 4°C [16]. The experimental protocol was reviewed and approved by the ethics committee of the Northeast Agricultural University Hospital. The erythrocytes obtained were washed three times with phosphate-buffered saline (PBS) solution (pH 7.2) and resuspended in PBS. A 50 µl volume of the erythrocyte solution was incubated with 50 µl of various peptides dissolved in PBS for 1 h at 37°C. Intact erythrocytes were pelleted by centrifugation at 1,000×g for 5 min at 4°C, and the supernatant was transferred to a new 96-well plate. The release of hemoglobin was monitored by measuring the absorbance at 570 nm. As negative and positive controls, hRBCs in PBS without the peptide and 0.1% Triton X-100 were employed, respectively.

E. coli ATCC 25922 = test: FACScan analysis of membrane integrity (propidium iodide); format: cell-based, Escherichia coli
Experimental: The integrity of the bacterial cell membranes after peptide treatment was determined using a previously described method. In brief, mid-logarithmic phase E. coli ATCC 25922 were harvested by centrifugation and washed three times with 10 mM PBS solution. The peptides (1×MIC and 2×MIC) were added and incubated for 30 min at 28°C with constant shaking at 140 rpm, and then, propidium iodide (PI, 10 µg/ml final concentration, Sigma) was added and incubated for a further 30 min at 4°C. After incubation, the unbound dye was removed via excessive washing of cells with PBS. Flow cytometry analysis was conducted using a FACScan instrument (Becton–Dickinson, San Jose, CA). E. coli cells were incubated with PI without peptide treated as negative control.

E. coli UB1005 = test: Inner (cytoplasmic) membrane depolarization, diSC3(5); format: cell-based, Escherichia coli; conditions: 0.4 µM diSC3(5), monitored over 360 s
Experimental: The cytoplasmic membrane depolarization activity of the peptides was measured by using E. coli UB1005 and the membrane potential sensitive fluorescent dye diSC3(5) as described previously. Briefly, mid-logarithmic phase E. coli were washed with 5 mM sodium HEPES buffer, pH 7.4, containing 20 mM glucose, and resuspended to an OD600 of 0.05 in the same buffer. The cell suspension was incubated with 0.4 µM diSC3(5) until a stable reduction of fluorescence was achieved (approximately 1 h). Then KCl was added to a final concentration of 0.1 M to equilibrate the cytoplasmic and external K^+. Two milliliters of the cell suspension were placed in a 1 cm cuvette, and the peptides were added to achieve the desired concentrations. Changes in fluorescence were recorded using an F-4500 fluorescence spectrophotometer (Hitachi, Japan) with an excitation wavelength of 622 nm and an emission wavelength of 670 nm. 0.1% Triton X-100 was employed as positive controls.

[4] = test system: Escherichia coli ATCC 25922; conditions: ATCC 25922, 24 h
Experimental: as §1

[5] = test system: Staphylococcus aureus ATCC 25923; conditions: ATCC 25923, 24 h
Experimental: as §1

[6] = test system: Staphylococcus aureus ATCC 29213; conditions: ATCC 29213, 24 h
Experimental: as §1

[7] = strain not given; for MIC, Without treatment: no salt added
[8] = broth microdilution, MH broth, 1×10^5 CFU/ml, 24 h at 37°C, visible turbidity, triplicate
[9] = serovar typhimurium C77-31, 24 h
[10] = all tested strains, >128 µM counted as 256 µM

Compound | MIC E. coli ATCC25922 [4] | MIC E. coli UB 1005 (Escherichia coli UB1005; UB1005, 24 h) | MIC S. typhimurium C77-31 [1, 9] | MIC S. aureus ATCC 25923 [5] | MIC S. aureus ATCC 29213 [6] | MIC S. epidermidis ATCC 12228 ([2]; ATCC 12228, 24 h) | GM, geometric mean of the MICs [3, 10] | Hemolytic activity (in words) (human erythrocytes) | further results
CC[C@H](C)[C@H](NC(=O)CN)C(=O)NCC(=O)N[C@@H](C)C(=O)N[C@H](C(=O)N[C@@H](CC(C)C)C(=O)N[C@@H](CCCCN)C(=O)N[C@H](C(=O)N[C@@H](CC(C)C)C(=O)N[C@H](C(=O)N[C@H](C(=O)NCC(=O)N[C@@H](CC(C)C)C(=O)N1CCC[C@H]1C(=O)N[C@@H](C)C(=O)N[C@@H](CC(C)C)C(=O)N[C@H](C(=O)N[C@@H](CO)C(=O)N[C@@H](Cc1c[nH]c2ccccc12)C(=O)N[C@H](C(=O)N[C@@H](CCCCN)C(=O)N[C@@H](CCCNC(=N)N)C(=O)N[C@@H](CCCCN)C(=O)N[C@@H](CCCNC(=N)N)C(=O)N[C@@H](CCC(N)=O)C(=O)N[C@@H](CCC(N)=O)C(N)=O)[C@@H](C)CC)[C@@H](C)CC)[C@@H](C)O)[C@@H](C)O)C(C)C)C(C)C [melittin, reference compound] | – | – | – | – | – | – | – | – | MIC E. coli UB 1005 (Escherichia coli UB1005; [8]): 2 µM (≈ 5.69 µg/mL); MIC S. typhimurium C77-31 [1, 8]: 2 µM (≈ 5.69 µg/mL); MIC S. epidermidis ATCC 12228 [2, 8]: 0.5 µM (≈ 1.42 µg/mL); GM, geometric mean of the MICs ([3]; 24 h): 2.52 µM; Concentration causing complete hemolysis (human erythrocytes; 1 h at 37°C): 4 µM; Cells stained with PI (E. coli ATCC 25922): 40.7%; Cytoplasmic membrane depolarization (diSC3(5) fluorescence, in words) (E. coli UB1005): induced dose-dependent increases in diSC3(5) fluorescence
GRFRRLRKKTRKRLKKIGKVLKWI-NH2 [GI24] | 1 µM | 2 µM | 1 µM | 4 µM | 2 µM | 2 µM | 1.78 µM | slightly hemolytic activity | Concentration causing 50% hemolysis (human erythrocytes; 1 h at 37°C): > 128 µM; MIC, CaCl2 (1 mM) [7]: 1 µM; MIC, MgCl2 (1 mM) [7]: 2 µM; MIC, NaCl (50 mM) [7]: 1 µM; MIC, NaCl (100 mM) [7]: 2 µM; MIC, NaCl (150 mM) [7]: 2 µM; MIC, Without treatment [7]: 1 µM
GVFRVLRKVTRVVLKVIGKVLKWI-NH2 [GI24-V6] | 2 µM | 4 µM | 4 µM | 2 µM | 2 µM | 2 µM | 2.52 µM | relatively high hemolytic activity | Concentration causing 50% hemolysis (human erythrocytes; 1 h at 37°C): 8 µM
GRFRRLRKKTRKRLKKIGKVLKKI-NH2 [GI24-W23K] | 32 µM | 16 µM | >128 µM | 64 µM | 32 µM | 32 µM | 45.25 µM | no hemolytic activity | –
GRFRRLRKKTRKRLKKIGKVLKLI-NH2 [GI24-W23L] | 1 µM | 2 µM | 2 µM | 4 µM | 4 µM | 4 µM | 2.52 µM | slightly hemolytic activity | –
RLKKIGKVLKWI-NH2 [RI12] | 8 µM | 16 µM | 8 µM | 128 µM | 64 µM | 64 µM | 28.51 µM | no hemolytic activity | –
GRFRRLRKKTRKRLKKIGKVLKWIPPIVGSIPLGCG-NH2 [PMAP-36, porcine myeloid antimicrobial peptide-36] | 1 µM | 2 µM | 1 µM | 2 µM | 2 µM | 2 µM | 1.59 µM | slightly hemolytic activity | MIC, CaCl2 (1 mM) [7]: 1 µM; MIC, MgCl2 (1 mM) [7]: 2 µM; MIC, NaCl (50 mM) [7]: 1 µM; MIC, NaCl (100 mM) [7]: 1 µM; MIC, NaCl (150 mM) [7]: 2 µM; MIC, Without treatment [7]: 1 µM
GVFRRLRKVTRKVLKKIGKVLKWI-NH2 [GI24-V3] | 4 µM | 4 µM | 4 µM | 4 µM | 4 µM | 2 µM | 3.56 µM | relatively high hemolytic activity | Concentration causing 50% hemolysis (human erythrocytes; 1 h at 37°C): 128 µM
PPIVGSIPLGCG-NH2 [PG12] | >128 µM | >128 µM | >128 µM | >128 µM | >128 µM | >128 µM | 256 µM | no hemolytic activity | –
GRFRRLRKKTRK-NH2 [GK12] | 128 µM | 128 µM | >128 µM | >128 µM | >128 µM | >128 µM | 203.19 µM | no hemolytic activity | –
GRFRRLRKKTRKRLKKIGKVLKAI-NH2 [GI24-W23A] | 16 µM | 16 µM | >128 µM | 128 µM | 128 µM | 128 µM | 71.84 µM | – | –
GRFRRLRKKTRKRLKKIGKV | – | – | – | – | – | – | – | – | Antimicrobial activity (in words) ([3]; tested microorganisms, up to 128 µM): extremely low antimicrobial activity
